Tests used:
[1] = target: T1, r-hP2X7 (rat 1-346, human 347-595) (Rattus norvegicus, UniProt Q64663, A359S/A378V/A493C/A522V/A540S/C350F/D413N/D475V/E375Q/E438D/E521H/E537D/E539D/G538V/H448D/I354L/I464K/I516L/I541T/K419R/K544R/K576R/L353F/L437T/L525F/M459I/N356D/N481S/N490S/P390S/P407S/Q433A/Q463R/Q505A/Q585E/R366H/R491H/R501K/S370W/S443P/S445A/S449T/S514R/S552C/T348A/T361N/T434M/T584S/V367I/V467T/V559G/W410R/Y593S); test: Whole-cell recordings in HEK293 cells expressing chimeric r-hP2X7 receptors; type: cell-based; conditions: low divalent concentrations, after removal of BzATP, n=10
T1 construct: r-hP2X7 (rat 1-346, human 347-595); expressed in transfected cells; host or cells: HEK293 (transient)
T1 sequence (Q64663 1-595 T348A/C350F/L353F/I354L/N356D/A359S/T361N/R366H/V367I/S370W/E375Q/A378V/P390S/P407S/W410R/D413N/K419R/Q433A/T434M/L437T/E438D/S443P/S445A/H448D/S449T/M459I/Q463R/I464K/V467T/D475V/N481S/N490S/R491H/A493C/R501K/Q505A/S514R/I516L/E521H/A522V/L525F/E537D/G538V/E539D/A540S/I541T/K544R/S552C/V559G/K576R/T584S/Q585E/Y593S): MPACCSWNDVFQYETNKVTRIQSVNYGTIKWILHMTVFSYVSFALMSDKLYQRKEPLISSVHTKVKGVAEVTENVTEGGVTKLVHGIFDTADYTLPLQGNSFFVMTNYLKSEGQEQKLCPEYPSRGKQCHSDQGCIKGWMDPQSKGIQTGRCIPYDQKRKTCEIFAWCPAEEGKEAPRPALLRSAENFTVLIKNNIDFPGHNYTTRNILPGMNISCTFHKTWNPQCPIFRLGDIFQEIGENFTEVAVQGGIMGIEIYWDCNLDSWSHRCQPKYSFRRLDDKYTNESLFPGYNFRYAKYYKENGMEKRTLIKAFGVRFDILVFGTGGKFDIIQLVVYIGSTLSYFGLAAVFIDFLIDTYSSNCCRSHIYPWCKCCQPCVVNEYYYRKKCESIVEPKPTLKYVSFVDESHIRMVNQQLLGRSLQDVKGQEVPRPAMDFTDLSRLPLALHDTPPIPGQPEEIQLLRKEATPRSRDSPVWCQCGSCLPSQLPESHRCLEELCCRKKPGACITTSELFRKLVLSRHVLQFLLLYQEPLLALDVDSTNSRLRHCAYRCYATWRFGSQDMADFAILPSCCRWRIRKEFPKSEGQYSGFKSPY
From the text: Chimeras. A silent restriction site (NheI) was introduced at the equivalent positions in the rat and human cDNAs using the Pfu mutagenesis kit (Stratagene) (T to G at 1069 in rP2X7; G to A at 1072 in hP2X7) . A NheI-XhoI fragment corresponding to 3′ extremity of each cDNA was then excised and subcloned in the opposite plasmid (i.e. human 3′ end into rat background). The resulting chimeras were h-rP2X7 (human 1-346, rat 347-595) and r-hP2X7 (rat 1-346, human 347-595) (FIG. 5). All constructions were sequenced on their entire coding region.
(§1) Cell culture. HEK293 cells were transiently transfected with cDNA (1 μg/ml) and lipofectin dissolved in Optimem (GIBCO) placed into petri dishes containing four coverslips onto which cells were plated at a density of about 8×10^4/coverslip. Cells were washed 5 h later and normal DMEM applied. Electrophysiological studies or dye uptake measurements were carried out 18-49 h later. For each set of transfections, parallel experiments were performed on HEK cells transfected with cDNA encoding both rP2X7 and hP2X7 receptors.
Electrophysiological experiments. Whole-cell recordings were made using the EPC9 patch-clamp amplifier and Pulse acquisition programs (HEKA, Lambrecht, Germany). Patch pipettes (5-7 MΩ) contained (mM) CsCl or NaCl 154, EGTA 10, HEPES 5. […]

rP2X7 receptor = target: T2, rP2X7 receptor (Rattus norvegicus, UniProt Q64663); test: Whole-cell recordings in HEK293 cells transiently transfected with rP2X7 receptors (Example 3); type: cell-based
T2 construct: yielding a construct that encoded the entire P2X7 protein; expressed in transfected cells
T2 sequence (Q64663 1-595): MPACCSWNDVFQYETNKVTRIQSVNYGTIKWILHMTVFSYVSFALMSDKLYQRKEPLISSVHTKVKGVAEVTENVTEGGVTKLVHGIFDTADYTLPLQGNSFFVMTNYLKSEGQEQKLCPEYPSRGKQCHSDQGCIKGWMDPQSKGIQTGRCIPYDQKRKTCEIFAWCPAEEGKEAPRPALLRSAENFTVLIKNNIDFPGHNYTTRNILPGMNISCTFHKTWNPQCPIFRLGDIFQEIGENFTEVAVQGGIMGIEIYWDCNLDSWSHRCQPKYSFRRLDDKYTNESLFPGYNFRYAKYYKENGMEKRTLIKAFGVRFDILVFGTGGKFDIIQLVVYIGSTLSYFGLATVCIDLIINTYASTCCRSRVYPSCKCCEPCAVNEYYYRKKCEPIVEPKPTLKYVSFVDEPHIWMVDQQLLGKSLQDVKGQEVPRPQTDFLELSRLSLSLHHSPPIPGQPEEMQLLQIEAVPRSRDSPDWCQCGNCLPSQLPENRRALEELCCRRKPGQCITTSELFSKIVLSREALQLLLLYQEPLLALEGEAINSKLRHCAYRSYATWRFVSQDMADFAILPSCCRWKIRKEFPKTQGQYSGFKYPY
Experimental: as §1
Electrophysiological experiments. Whole-cell recordings were made using the EPC9 patch-clamp amplifier and Pulse acquisition programs (HEKA, Lambrecht, Germany). Patch pipettes (5-7 MΩ) contained (mM) CsCl or NaCl 154, EGTA 10, HEPES 5. The normal extracellular solution contained (mM) NaCg 147, KCl2, CaCl2 2, MgCl2 1, HEPES 10 and glucose 12, and the “low divalent” solution had no magnesium and 0.3 mM CaCl2. Agonists were delivered by U-tube delivery system; antagonists, when applied, were present in both superfusion and U-tube. Experiments were carried out at room temperature.

- current measured at 30 s, of peak [1]: 31±3
- cation current induced by maximal concentration of BzATP (rP2X7 receptor; 30 μM BzATP, n=12): 1869±286 pA
- current measured at 30 s, of the peak current (rP2X7 receptor; low extracellular divalent concentrations, n=13): 80±3%
SMILES: Nc1ncnc2c1ncn2[C@@H]1O[C@H](COP(=O)(O)OP(=O)(O)OP(=O)(O)O)[C@@H](OC(=O)c2ccc(C(=O)c3ccccc3)cc2)[C@H]1O [BzATP, 3′-O-(4-benzoyl)benzoyl ATP]

Reference: patent US6509163B1, “Methods of screening modulators of mammalian P2X7 purinergic receptors” (Glaxo Group Limited, priority 1997, dated 2003)
